Laboratory results from the supplement of paper PMC10307832.

Experiments:
Test in all cases: relative viability (nuclei count vs DMSO), 5 days (fraction); higher = more cells survive
Midostaurin + Navitoclax = compound: CO[C@@H]1[C@H](N(C)C(=O)c2ccccc2)C[C@H]2O[C@]1(C)n1c3ccccc3c3c4c(c5c6ccccc6n2c5c31)C(=O)NC4 [Midostaurin] + CC1(C)CCC(c2ccc(Cl)cc2)=C(CN2CCN(c3ccc(C(=O)NS(=O)(=O)c4ccc(N[C@H](CCN5CCOCC5)CSc5ccccc5)c(S(=O)(=O)C(F)(F)F)c4)cc3)CC2)C1 [Navitoclax] (partner 0.5 µM)
In short: (§1)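 Relative viability is defined as nuclei in treated wells over nuclei in vehicle wells. Duplicate plates were run and medians reported. Lung cancer cell lines in 1536-well plates were dosed by pin tool one day after seeding, with one drug or with a fixed anchor-drug dose plus five library-drug doses (not always all listed) in √10 steps, and nuclei were counted after 5 days.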

[1] = compound: CO[C@@H]1[C@H](N(C)C(=O)c2ccccc2)C[C@H]2O[C@]1(C)n1c3ccccc3c3c4c(c5c6ccccc6n2c5c31)C(=O)NC4 [Midostaurin] + CC(=O)c1c(C)c2cnc(Nc3ccc(N4CCNCC4)cn3)nc2n(C2CCCC2)c1=O [Palbociclib] (partner 0.5 µM)
In short: as §1

[2] = compound: COc1cc(-c2nn([C@H]3CC[C@H](N4CCN(C(C)=O)CC4)CC3)c3ncnc(N)c23)ccc1NC(=O)c1cc2ccccc2n1C + C[C@@H](Oc1cc(-c2cnn(C3CCNCC3)c2)cnc1N)c1c(Cl)ccc(F)c1Cl [Crizotinib] (partner 1 µM)
In short: as §1

[3] = compound: COc1cc(-c2nn([C@H]3CC[C@H](N4CCN(C(C)=O)CC4)CC3)c3ncnc(N)c23)ccc1NC(=O)c1cc2ccccc2n1C + C[C@]1(O)C[C@@H](c2nc(-c3ccc4ccc(-c5ccccc5)nc4c3)c3c(N)nccn32)C1 [Linsitinib] (partner 1 µM)
In short: as §1

[4] = compound: COc1cc(-c2nn([C@H]3CC[C@H](N4CCN(C(C)=O)CC4)CC3)c3ncnc(N)c23)ccc1NC(=O)c1cc2ccccc2n1C + CCNC(=O)c1noc(-c2cc(C(C)C)c(O)cc2O)c1-c1ccc(CN2CCOCC2)cc1 [Luminespib] (partner 0.01 µM)
In short: as §1

Row | Cell Line | relative viability (Midostaurin + Navitoclax; first compound 0.01 µM) | relative viability (Midostaurin + Navitoclax; first compound 0.03162 µM) | relative viability (Midostaurin + Navitoclax; first compound 0.1 µM) | relative viability (Midostaurin + Navitoclax; first compound 0.3162 µM) | relative viability ([1]; first compound 0.01 µM) | relative viability ([1]; first compound 0.03162 µM) | relative viability ([1]; first compound 0.1 µM) | relative viability ([1]; first compound 0.3162 µM) | relative viability ([2]; first compound 0.0128 µM) | relative viability ([2]; first compound 0.04048 µM) | relative viability ([2]; first compound 0.128 µM) | relative viability ([2]; first compound 1.28 µM) | relative viability ([3]; first compound 0.0128 µM) | relative viability ([3]; first compound 0.04048 µM) | relative viability ([3]; first compound 0.128 µM) | relative viability ([3]; first compound 1.28 µM) | relative viability ([4]; first compound 0.0128 µM) | relative viability ([4]; first compound 0.04048 µM) | relative viability ([4]; first compound 0.128 µM) | relative viability ([4]; first compound 1.28 µM)
1 | 201T | 1.19 | 1.2 | 1.17 | 1.25 | 0.366 | 0.368 | 0.35 | 0.406 | 1.02 | 1.05 | 0.941 | 0.815 | 0.979 | 1.05 | 0.927 | 0.665 | 1.04 | 1.1 | 0.929 | 0.539
2 | A549 | 1.2 | 1.08 | 1.08 | 0.77 | – | – | – | – | 0.854 | 1.02 | 0.686 | 0.719 | 0.552 | 0.666 | 0.619 | 0.465 | – | – | – | –
3 | A-427 | 0.977 | 0.859 | 0.883 | 0.767 | 0.486 | 0.566 | 0.513 | 0.508 | 1.04 | 0.771 | 0.872 | 0.803 | 1.16 | 1.08 | 1.07 | 0.963 | 1.16 | 0.867 | 0.895 | 0.794
4 | ABC-1 | – | – | – | – | 0.709 | 1.01 | 0.679 | 0.559 | 1.01 | 0.98 | 0.87 | 0.766 | 0.709 | 0.887 | 0.749 | 0.697 | 0.546 | 0.612 | – | 0.332
5 | BEN | 0.0719 | 0.0568 | 0.0815 | 0.064 | 0.515 | 0.473 | 0.52 | 0.467 | 0.8 | 0.996 | 0.756 | 0.576 | 0.815 | 0.926 | 0.851 | 0.644 | 0.156 | 0.398 | 0.36 | 0.259
6 | CAL-12T | 1.44 | 0.981 | 1.05 | 1.2 | 0.513 | 0.492 | 0.405 | 0.308 | 0.621 | 0.818 | 0.581 | 0.413 | 0.851 | 0.533 | 0.801 | 0.74 | 0.281 | 0.417 | 0.348 | 0.267
7 | COR-L23 | 0.99 | 0.966 | 0.87 | 0.925 | 0.259 | 0.346 | 0.285 | 0.207 | 0.59 | 0.845 | 0.675 | 0.602 | 0.866 | 0.96 | 0.992 | 0.924 | 0.713 | 0.667 | 0.688 | 0.736
8 | COR-L 105 | 0.733 | 0.941 | 0.51 | 0.862 | 0.414 | 0.416 | 0.396 | 0.4 | 0.771 | 0.864 | 0.594 | 0.678 | 1.04 | 0.77 | 0.898 | 0.549 | 0.641 | 0.707 | 0.737 | 0.479
9 | Calu-6 | 0.69 | 0.757 | 0.709 | 0.697 | – | – | – | – | 0.692 | 0.806 | 0.609 | 0.596 | 0.901 | 0.657 | 0.858 | 0.785 | – | – | – | –
10 | ChaGo-K-1 | 0.909 | 1.36 | 0.915 | 1.25 | 0.912 | 1 | 0.889 | 0.935 | 1.17 | 1.13 | 1.03 | 0.882 | – | – | – | – | 0.721 | 0.615 | 0.616 | 0.679
11 | EBC-1 | 0.49 | 0.453 | 0.429 | 0.312 | – | – | – | – | 0.193 | 0.198 | 0.24 | 0.185 | 0.77 | 0.959 | 0.898 | 0.896 | – | – | – | –
12 | EKVX | 0.907 | 0.955 | 0.893 | 0.905 | 0.443 | 0.45 | 0.362 | 0.401 | 0.986 | 1.04 | 0.755 | 0.359 | 1.2 | 1.12 | 0.918 | 0.499 | 0.864 | 0.988 | 0.795 | 0.631
13 | EMC-BAC-2 | 1.19 | 1.09 | 0.981 | 1.08 | 0.489 | 0.531 | 0.489 | 0.456 | 0.759 | 0.848 | 0.731 | 0.532 | 0.869 | 0.806 | 0.815 | 0.521 | 1.21 | 1.18 | 1.23 | 1.06
14 | EPLC-272H | 1.11 | 0.96 | 0.856 | 1.27 | 0.291 | 0.355 | 0.302 | 0.3 | 0.974 | 0.924 | 0.984 | 0.701 | 1.45 | 1.21 | 0.878 | 1.04 | 0.331 | – | 0.257 | 0.209
15 | H3255 | 0.575 | 0.587 | 0.488 | 0.562 | 0.317 | 0.327 | 0.333 | 0.342 | 0.938 | 0.981 | 0.81 | 0.468 | 1.04 | 0.935 | 0.887 | 0.663 | 0.959 | 1.06 | 0.848 | 0.701
16 | HARA | 1.13 | 1.12 | 1.14 | 1.14 | 0.316 | 0.283 | 0.278 | 0.242 | 1.02 | 1.1 | 0.914 | 0.623 | 1 | 0.873 | 0.891 | 0.62 | 0.784 | 1.03 | 0.516 | 0.296
17 | HCC-15 | 0.721 | 0.697 | 0.71 | 0.704 | 0.806 | 0.788 | 0.771 | 0.73 | 0.89 | 0.772 | 0.808 | 0.67 | 0.922 | 0.807 | 0.815 | 0.662 | 0.818 | 0.302 | 0.224 | 0.23
